The source of these data is US20120059005A1, “COMBINATION OF (A) A PHOSPHOINOSITIDE 3-KINASE INHIBITOR AND (B) AN ANTIDIABETIC COMPOUND FOR USE IN THE TREATMENT OF PROLIFERATIVE DISEASES” (NOVARTIS AG, priority 2009, published 2012).

Like-named read-outs stand apart in the source and are kept apart here.

Data set [1] has as its system H520 non-small cell lung tumors. The experiment in a line: H520 xenograft 20-day tumor growth inhibition assay. The settings on record: for Mean Tumor Vol. Change / Regression / T/C: Day 20. In kind it is in vivo, nude mice. As for the experimental part:
EGFR-null H520 human non-small cell lung cancer (NSCLC) cells are treated with different doses of 2-Methyl-2-[4-(3-methyl-2-oxo-8-quinolin-3-yl-2, 3-dihydro-imidazo[4,5-c]quinolin-1-yl)-phenyl]-propionitrile monotosylate salt (also known as COMPOUND A) or 5-(2,6-di-morpholin-4-yl-pyrimidin-4-yl)-4-trifluoromethyl-pyridin-2-ylamine hydrochloride salt (also known as COMPOUND C), a single dose of metformin or both agents in combination, The H520 human NSCLC cells (NCl-H520, ATCC-HTB-182, available from American Type Culture Collection, Rockville, Md. US) are isolated from a sample of a lung mass taken from a patient with squamous cell carcinoma of the lung (Banks-Schlegel et at Cancer Res, 45(3): 1187-1197 (1985).
H520 tumor cells are grown in RPMI 1640 medium containing 100 units/mL penicillin G sodium, 100 μg/ML streptomycin sulfate, and 25 µg/mL gentamicin. The medium is supplemented with 10% fetal bovine serum, 2 mM glutamine, and 1 mM sodium pyruvate, and buffered with 10 mM HEPES and 0.075% sodium bicarbonate. The cells are cultured in tissue culture flasks in a humidified incubator at 37° C., in an atmosphere of 5% CO2 and 95% air. The cells are harvested for injection into 8-week old female nu/nu (nude) mice (Harlan Laboratories, Indianapolis, Ind.) by detaching the monolayers with 1× trypsin and resuspending at 5×10^7cells/mL in phosphate-buffered saline containing 50% Matrigel.
(§1) 0.2 mL of H520 tumor cell suspension (1×10^7 cells) is injected subcutaneously in the right flank of 8-week old female nu/nu (nude) mice (Harlan Laboratories, Indianapolis, Ind.) having a body weight (BW) range of 18.1-26.9 g on Day 1 of the study. Tumors are monitored twice weekly and then daily as their mean volume approaches 120-180 mm^3. […] Tumor weight can be estimated with the assumption that 1 mg is equivalent to 1 mrn^3 of tumor volume.
(§2) The 11 groups of nude mice are treated as follows. One group of eight mice serves as Controls (C or Control) for all analyses and is administered intraperitoneally (i.p.) 50 mM sodium acetate at pH 4 (Vehicle 1) and then administered by oral gavage (p.o.) a composition comprising 10% N-methylpyrrolidone: 90% polyethylene glycol 300 (PEG 300) (Vehicle 2). […] Metformin is dissolved in 50 mM sodium acetate at pH 4 for dosing,
(§3) Compound C is stored at −20° C. protected from light. Stock solutions (10×) in 100% N-methylpyrrolidone (NMP) are prepared every five days, aliquotted, and stored in the dark at room temperature. On each treatment day, stock solution aliquots are diluted with polyethylene glycol (PEG300) to provide the formulated drug (Compound A or Compound C) in 10% NMP: 90% PEG300, Dosing solutions are protected from light and the formulated drug is administered within 1 hour after preparation.
(§4) For combination therapies, Compound A or Compound C is administered by oral gavage (p.o.) within 30 minutes after the intraperitoneal (i.p.) administration of metformin, except on Day 20 when Compound A or Compound C is given immediately after metformin.
(§5) Paclitaxel (Natural Pharmaceuticals, Inc., Beverly, Mass., USA) is administered by bolus tail-vein injections (i.v.) once daily on alternate days for five doses. Paclitaxel is dissolved in 50% ethanol and 50% Cremophor® EL to prepare a 10× stock solution stored at room temperature. On each day of dosing, an aliquot of the pad itaxel stock solution is diluted with 5% dextrose in water to yield a dosing solution containing 5% ethanol and 5% Cremophor® EL.
Statistical and graphical analyses was conducted by determining the difference in tumor volume between Day 1 (the start of dosing) and the endpoint day for each animal that remained on study on Day 20. Antitumor activity is expressed as % T/C (comparing the mean tumor volume change between the endpoint day and Day 1 for the treatment group to the Control). A T/C≦40% is classified as potential therapeutically active.

The procedure of data set [2]:
as §1, §2, §3, §4, §5

How the values of data set [3] were obtained:
0.2 mL of H460 tumor cell suspension (1×10^7 cells) is injected subcutaneously in the right flank of 9-week old female nu/nu (nude) mice (Harlan Laboratories, Indianapolis, Ind.) having a body weight (BW) range of 18.1-26.9 g on Day 1 of the study. Tumors are monitored twice weekly and then daily as their mean volume approaches 100-150 mm^3. Ten days after implantation, the mice are sorted into 11 groups of eight mice having individual tumor sizes of 75-196 mm^3 and a group mean tumor size of 119-122 mm^3. Tumor volume in mm^3 is determined using the formula [(width)^2×(length)]/2, where width width of the tumor in mm and length length of the tumor in mm. Tumor weight can be estimated with the assumption that 1 mg is equivalent to 1 mm^3 of tumor volume.
The 11 groups of nude mice are treated as follows. One group of eight mice serves as Controls (C or Control) for all analyses and is administered intraperitoneally (i.p.) 50 mM sodium acetate at pH 4 (Vehicle 1) and then administered by oral gavage (p.o.) a composition comprising 10% N-methylpyrrolidone 90% polyethylene glycol 300 (PEG300) (Vehicle 2). […] Metformin is dissolved in 50 mM sodium acetate at pH 4 for dosing.
Compound A is stored at −20° C. Compound C is stored at −20° C. protected from light. Stock solutions (10×) in 100% N-rnethylpyrrolidone (NMP) are prepared every five days, aliquotted, and stored in the dark at room temperature. On each treatment day, stock solution aliquots are diluted with polyethylene glycol (PEG300) to provide the formulated drug (Compound A or Compound C) in 10% NMP: 90% PEG300. Dosing solutions are protected from light, and the formulated drug is administered within 1 hour after preparation.
For combination therapies, Compound A or Compound C are administered by oral gavage (p.o.) within 30 minutes after the intraperitoneal (i.p.) administration of metformin, except on Day 20 when Compound A or Compound C is given immediately after metformin.
Paclitaxel (Natural Pharmaceuticals, Inc., Beverly, Mass., USA) is administered by bolus tail-vein injections (i.v.) once daily on alternate days for five doses. Paclitaxel is dissolved in 50% ethanol and 50% Crernophor® EL to prepare a 10× stock solution stored at room temperature. On each day of dosing, an aliquot of the paclitaxel stock solution is diluted with 5% dextrose in water to yield a dosing solution containing 5% ethanol and 5% Cremophor® EL.
In all groups, the dosing volume of 10 mL/kg (0.2 mL/20 g mouse) is scaled to the weight of each animal as determined on the day of dosing, except on weekends when the previous BW is carried fontvard.
This is another data set of the same source.

The mark [4] stands for this setting: Compound A 41.1 mg/kg p.o., 1x daily.
Where [5] appears, read: Compound A 68.5 mg/kg p.o., 1x daily.
[6] abbreviates: female, nu/nu (nude), mouse, in vivo, po, 41.1 mg/kg.
[7] abbreviates: female, nu/nu (nude), mouse, in vivo, po, 68.5 mg/kg.
Setting [8] is: Paclitaxel 30 mg/kg i.v., 1x on alternate days for 5 doses.
The mark [9] stands for this setting: Compound C 32.7 mg/kg p.o., 1x daily.
The mark [10] stands for this setting: Compound C 54.4 mg/kg p.o., 1x daily until day 7 (stopped due to toxicity).
The mark [11] stands for this setting: Metformin 192.3 mg/kg i.p., 1x daily.

With `Cn1c(=O)n(-c2ccc(C(C)(C)C#N)cc2)c2c3cc(-c4cnc5ccccc5c4)ccc3ncc21` [Compound A, 2-Methyl-2-[4-(3-methyl-2-oxo-8-quinolin-3-yl-2,3-dihydro-imidazo[4,5-c]quinolin-1-yl)-phenyl]-propionitrile], the “Mean Tumor Vol. Change” value is reported as 598 mm^3 in data set [1] (setting [4]) and 466 mm^3 in data set [1] (setting [5]). Further, the Regression entry in data set [1] (setting [4]) and in data set [1] (setting [5]) was “None” in each case. Further, the T/C in data set [1] (setting [4]) is given as 60% (ns^†); in data set [1] (setting [5]), 47% (ns^†). In addition, the Dead/Total was 0/8 in data set [2] (setting [6]), 1/8 in data set [2] (setting [7]), 0/8 in data set [3] (setting [6]) and 0/8 in data set [3] (setting [7]). The “Mean Body Weight Change” value in data set [2] (mouse, in vivo, po, 68.5 mg/kg) is on record as −1.3%, Day 7.
For the molecule `CC(=O)O[C@H]1C(=O)[C@@]2(C)[C@H]([C@H](OC(=O)c3ccccc3)[C@]3(O)C[C@H](OC(=O)[C@H](O)[C@@H](NC(=O)c4ccccc4)c4ccccc4)C(C)=C1C3(C)C)[C@]1(OC(C)=O)CO[C@@H]1C[C@@H]2O` [Paclitaxel, reference compound], the “Mean Tumor Vol. Change” value in data set [1] (setting [8]) was determined as 53 mm^3. Besides, the Regression result in data set [1] (setting [8]) is given as “None”. Further, the T/C stood at 5% in data set [1] (setting [8]) and 5% in data set [1] (Paclitaxel 30 mg/kg i.v., 1x on alternate days for 5 doses, listed as paclitaxel). Besides, the Dead/Total in data set [2] (setting [8]) and in data set [3] (setting [8]) was 0/8 in each case.
As to `Nc1cc(C(F)(F)F)c(-c2cc(N3CCOCC3)nc(N3CCOCC3)n2)cn1` [Compound C, 5-(2,6-di-morpholin-4-yl-pyrimidin-4-yl)-4-trifluoromethyl-pyridin-2-ylamine], in data set [1] (setting [9]), the “Mean Tumor Vol. Change” value worked out at 542 mm^3, the Regression result is “None” and the T/C is listed as 54% (ns^†). In data set [1] (setting [10]), the “Mean Tumor Vol. Change” value was 475 mm^3 and the Regression result was “None”. The T/C in data set [1] (Compound C 54.4 mg/kg p.o., 1x daily until day 7 (stopped due to toxicity), not evaluable (ne)) is given as 48% (ne).
For `CN(C)C(=N)N=C(N)N` [Metformin, dimethyldiguanide, reference compound], in data set [1] (setting [11]), the “Mean Tumor Vol. Change” value was 1003 mm^3, the Regression entry was “None” and the T/C is 101% (ns^†). Besides, in data set [1] (metformin monotherapy at 192.3 mg/kg), the “modulation of tumor growth in the 20-day tumor growth inhibition assay” value was “did not appear to modulate tumor growth”. Further, the Dead/Total in data set [2] (setting [11]) is reported as 0/8. Further, the Dead/Total in data set [3] (setting [11]) is 0/8.

Broadly, the T/C is the ratio of treated to control.
